Laboratory results: PMC3423427, “Design and Synthesis of Potent N-Acylethanolamine-hydrolyzing Acid Amidase (NAAA) Inhibitor as Anti-Inflammatory Compounds” (PLoS ONE, 2012)

Key:
rat NAAA = target: T1, rat NAAA (Rattus norvegicus, UniProt Q5KTC7); test: NAAA enzymatic assay (recombinant rNAAA protein, LC/MS); type: biochemical; details: for IC50: IC50 ± S.E.M., triplicate, 25 µM heptadecenoylethanolamide, pH 5.0;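 on all read-outs here: reaction product measured by LC/MS using positive APCI ionization with MRM monitoring, quantified from chromatographic peak areas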
T1 construct: made in house; host or cells: HEK293 cells stably overexpressing rat NAAA (HEK293-rNAAA), a gift from D. Piomelli; crude 800 x g supernatant of sonicated cells
T1 sequence (Q5KTC7 34-362): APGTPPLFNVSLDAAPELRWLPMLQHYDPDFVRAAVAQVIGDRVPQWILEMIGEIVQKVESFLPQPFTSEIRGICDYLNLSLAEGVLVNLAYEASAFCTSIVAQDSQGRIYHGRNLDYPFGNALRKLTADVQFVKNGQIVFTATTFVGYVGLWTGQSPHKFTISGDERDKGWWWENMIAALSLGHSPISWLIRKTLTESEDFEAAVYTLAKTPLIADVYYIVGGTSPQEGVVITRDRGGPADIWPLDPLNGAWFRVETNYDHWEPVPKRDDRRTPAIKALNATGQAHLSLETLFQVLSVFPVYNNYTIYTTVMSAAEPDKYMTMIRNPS
Protocol: (§1) HEK293-rNAAA or HEK293-rFAAH cells were harvested, washed with PBS, sonicated in 20 mM Tris-HCl (pH 7.5) containing 0.32 M sucrose, and centrifuged at 800 × g for 15 min at 4°C. The supernatants were collected and protein concentrations were measured by BCA protein assay kit (Pierce, Shanghai, China). […] The reactions were terminated by adding 0.2 mL methanol containing 1 nmol heptadecanoic acid and analyzed in LC/MS.
(§2) We use an Agilent 1200-LC system coupled to a 3200Q TRAP-MS detector equipped with an ESI interface (Agilent Technologies, Shanghai, China). […] The column temperature was set at 40°C. […] Mass spectrometer (MS) detection was ionized by positive-ion atmospheric pressure chemical ionization mode (APCI^+) and monitored in MRM mode. […] Quantifications were calculated at chromatographic peak areas by using Analyst® version 1.4.1. software (Applied Biosystems).

rat FAAH = target: T2, rat FAAH (Rattus norvegicus, UniProt P97612); test: FAAH enzymatic assay (recombinant rFAAH protein, LC/MS); type: biochemical; details: for IC50: IC50 ± S.E.M., triplicate, 25 µM anandamide, pH 8.0
T2 construct: made in house; host or cells: HEK293 cells stably overexpressing rat FAAH (HEK293-rFAAH), a gift from D. Piomelli; crude cell extract
T2 sequence (P97612 1-579): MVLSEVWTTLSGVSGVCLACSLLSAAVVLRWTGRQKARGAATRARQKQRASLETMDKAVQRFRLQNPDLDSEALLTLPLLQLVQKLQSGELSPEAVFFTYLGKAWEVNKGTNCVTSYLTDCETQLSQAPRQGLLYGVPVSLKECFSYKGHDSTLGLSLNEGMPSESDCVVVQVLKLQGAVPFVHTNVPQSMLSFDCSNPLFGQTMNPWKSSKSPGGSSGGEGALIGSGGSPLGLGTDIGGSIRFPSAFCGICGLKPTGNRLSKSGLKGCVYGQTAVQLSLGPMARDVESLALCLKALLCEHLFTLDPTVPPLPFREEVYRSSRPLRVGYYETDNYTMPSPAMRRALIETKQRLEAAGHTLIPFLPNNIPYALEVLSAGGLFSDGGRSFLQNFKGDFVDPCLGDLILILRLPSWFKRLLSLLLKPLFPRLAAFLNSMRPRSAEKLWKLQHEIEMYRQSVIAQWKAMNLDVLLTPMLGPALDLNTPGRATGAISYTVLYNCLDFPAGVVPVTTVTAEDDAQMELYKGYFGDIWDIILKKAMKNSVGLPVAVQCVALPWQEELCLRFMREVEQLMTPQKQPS
Protocol: as §1, §2

NAAA = details: cited from earlier work

For `O=C(OCc1ccc(-c2ccccc2)cc1)N1CCCC1` [Compound 22, Biphenyl–4–ylmethyl pyrrolidinyl–1–carboxylate], the “inhibition ability on NAAA activity (in words)” value (rat NAAA) was “full loss of inhibition”, the IC50 (rat NAAA) was over 100 µM and the “inhibition ability on FAAH activity (in words)” value (rat FAAH) was “full loss of inhibition”. The IC50 (rat FAAH) was over 100 µM.
Molecule `O=C(c1ccc(-c2ccccc2)cc1)N1CCCC1` [Compound 14, 1–(Biphenyl–4–ylcarbonyl)pyrrolidine] has an IC50 (rat NAAA) of over 100 µM and an IC50 (rat FAAH) of over 100 µM.
With `CCCCCCCCCCCCCCCC(=O)N1CCCC1` [Compound 1, 1–Pentadecanyl–carbonyl pyrrolidine] the IC50 (rat NAAA) was 25 ± 5.7 µM and the IC50 (rat FAAH) was 21.8 ± 4.45 µM.
Work on `O=C(CCc1ccccc1)N1CCCC1` [Compound 8, 1–(2–Phenylethyl)–carbonyl pyrrolidine] yielded an IC50 (rat NAAA) of over 100 µM and an IC50 (rat FAAH) of over 100 µM.
In the case of `O=C(OCc1ccc(-c2ccccc2)cc1)C1CCCC1` [Compound 24, 4–Phenylbenzyl cyclopentanyl carboxylate], the “inhibition ability on NAAA activity (in words)” value (rat NAAA) is reported as “full loss of inhibition”, the IC50 (rat NAAA) is reported as over 100 µM and the “inhibition ability on FAAH activity (in words)” value (rat FAAH) is reported as “full loss of inhibition”. The IC50 (rat FAAH) was over 100 µM.
With `O=C(c1ccc2ccccc2c1)N1CCCC1` [Compound 19, 1–(2–Naphthalenyl)carbonyl pyrrolidine] the IC50 (rat NAAA) was over 100 µM and the IC50 (rat FAAH) was over 100 µM.
With `O=C(CCCCc1ccccc1)N1CCCC1` [Compound 10, 1–(4–Phenylbutanyl)–carbonyl pyrrolidine] the IC50 (rat NAAA) was 38.2 ± 3.79 µM and the IC50 (rat FAAH) was over 100 µM.
For `O=C(CCCc1ccccc1)N1CCCC1` [Compound 9, 1–(3–Phenylpropanyl)–carbonyl pyrrolidine], the IC50 (rat NAAA) was over 100 µM and the IC50 (rat FAAH) was over 100 µM.
With `O=C(Cc1ccccc1)N1CCCC1` [Compound 7, 1–Benzyl–carbonyl pyrrolidine] the IC50 (rat NAAA) was over 100 µM and the IC50 (rat FAAH) was over 100 µM.
For `O=C(CCc1ccccc1)N[C@H]1COC1=O` [(S)-OOPP, (S)-N-(2-oxo-3-oxetanyl)-3-phenylpropionamide], the “potency as NAAA inhibitor relative to CCP” value (NAAA) is listed as “about 10 fold”.
In the case of `O=C(Cc1ccc2ccccc2c1)N1CCCC1` [Compound 20, 1–(2–Naphthalenyl)acetyl pyrrolidine], the IC50 (rat NAAA) is reported as over 100 µM and the IC50 (rat FAAH) is reported as over 100 µM.
For `O=C(CCCCCCCc1ccccc1)N1CCCC1` [Compound 13, 1–(7–Phenylheptanyl)–carbonyl pyrrolidine], the IC50 (rat NAAA) was 37.9 ± 4.58 µM and the IC50 (rat FAAH) was over 100 µM.
With `CCCCCCCCCCCCCCCC(=O)N1CCCCC1` [Compound 3, Pentadecanyl–carbonyl piperidine] the “inhibition ability on NAAA activity (in words)” value (rat NAAA) was “complete loss of the inhibition ability”, the IC50 (rat NAAA) was over 100 µM and the “inhibition ability on FAAH activity (in words)” value (rat FAAH) was “complete loss of the inhibition ability”. The IC50 (rat FAAH) was over 100 µM.
In the case of `c1ccc(-c2ccc(CCCN3CCCC3)cc2)cc1` [Compound 25, 1–(3–Biphenyl–4–ylpropyl)pyrrolidine], the “inhibition ability on NAAA activity (in words)” value (rat NAAA) is reported as “full loss of inhibition”, the IC50 (rat NAAA) is reported as over 100 µM and the “inhibition ability on FAAH activity (in words)” value (rat FAAH) is reported as “full loss of inhibition”. The IC50 (rat FAAH) was over 100 µM.
`O=C(CCc1ccc(OCc2ccccc2)cc1)N1CCCC1` [Compound 18, 1–(2–(4–Benzyloxy)phenyl)ethyl–carbonyl pyrrolidine] showed an IC50 (rat NAAA) of over 100 µM and an IC50 (rat FAAH) of over 100 µM.
In the case of `CCCCCCCCCCCCCCCNC(=O)C1CCCCC1` [CCP, N-Cyclohexanecarbonylpentadecylamine], the “mode of NAAA inhibition” value (NAAA) is listed as “reversible and non-competitive”.
In the case of `CCCCCCCCCCCCCCCC(=O)OC1CCOC1` (stereo not drawn) [Compound 5, Tetrahydrofuran–3–yl palmitate], the “inhibition ability on NAAA activity (in words)” value (rat NAAA) is reported as “complete loss of the inhibition ability”, the IC50 (rat NAAA) is reported as over 100 µM and the “inhibition ability on FAAH activity (in words)” value (rat FAAH) is reported as “complete loss of the inhibition ability”. The IC50 (rat FAAH) was over 100 µM.
`O=C(CCCCCCc1ccccc1)N1CCCC1` [Compound 12, 1–(6–Phenylhexanyl)–carbonyl pyrrolidine] showed an IC50 (rat NAAA) of 12.9 ± 3.47 µM and an IC50 (rat FAAH) of over 100 µM.
In the case of `CCCCCCCCCCCCCCCC(=O)OC1CCCC1` [Compound 4, Cyclopentyl palmitate], the “inhibition ability on NAAA activity (in words)” value (rat NAAA) is reported as “complete loss of the inhibition ability”, the IC50 (rat NAAA) is reported as over 100 µM and the “inhibition ability on FAAH activity (in words)” value (rat FAAH) is reported as “complete loss of the inhibition ability”. For the same molecule, the IC50 (rat FAAH) was over 100 µM.
For `O=C(CCCCCc1ccccc1)N1CCCC1` [Compound 11, 1–(5–Phenylpentanyl)–carbonyl pyrrolidine], the IC50 (rat NAAA) was 34.6 ± 4.82 µM and the IC50 (rat FAAH) was over 100 µM.
For `O=C(NCc1ccc(-c2ccccc2)cc1)N1CCCC1` [Compound 21, N–(Biphenyl–4–ylmethyl)pyrrolidinyl–1–carboxamide], the “inhibition ability on NAAA activity (in words)” value (rat NAAA) was “full loss of inhibition”, the IC50 (rat NAAA) was over 100 µM and the “inhibition ability on FAAH activity (in words)” value (rat FAAH) was “full loss of inhibition”. For the same molecule, the IC50 (rat FAAH) was over 100 µM.
For `CCCCCCCCCCCCCCCC(=O)n1cccc1` [Compound 6, 1–Pentadecanyl–carbonyl pyrrole], the “inhibition ability on NAAA activity (in words)” value (rat NAAA) was “complete loss of the inhibition ability”, the IC50 (rat NAAA) was over 100 µM and the “inhibition ability on FAAH activity (in words)” value (rat FAAH) was “complete loss of the inhibition ability”. For the same molecule, the IC50 (rat FAAH) was over 100 µM and the melting point was 57.9 to 60.2 °C.
Molecule `O=C(Cc1ccc(OCc2ccccc2)cc1)N1CCCC1` [Compound 17, 1–(4–Benzyloxy)benzyl–carbonyl pyrrolidine] has an IC50 (rat NAAA) of over 100 µM and an IC50 (rat FAAH) of over 100 µM.
For `O=C(NCc1ccc(-c2ccccc2)cc1)C1CCCC1` [Compound 23, 4–Phenylbenzyl cyclopentanyl carboxamide], the “inhibition ability on NAAA activity (in words)” value (rat NAAA) was “full loss of inhibition”, the IC50 (rat NAAA) was over 100 µM and the “inhibition ability on FAAH activity (in words)” value (rat FAAH) was “full loss of inhibition”. It also gave an IC50 (rat FAAH) of over 100 µM and a melting point of 151.8 to 154.6 °C.
In the case of `O=C(Cc1ccc(-c2ccccc2)cc1)N1CCCC1` [Compound 15, 1–(4–Phenylbenzyl)–carbonyl pyrrolidine], the IC50 (rat NAAA) is reported as over 100 µM and the IC50 (rat FAAH) is reported as over 100 µM.
For `CCCCCCCCCCCCCCCC(=O)NC1CCCC1` [Compound 2, N–Cyclopentylpalmitamide], the “inhibition ability on NAAA activity (in words)” value (rat NAAA) was “complete loss of the inhibition ability”, the IC50 (rat NAAA) was over 100 µM and the “inhibition ability on FAAH activity (in words)” value (rat FAAH) was “complete loss of the inhibition ability”. The IC50 (rat FAAH) was over 100 µM.
